Test [1] has as its target T1, human full-length glucocorticoid receptor (Homo sapiens, UniProt P04150).
T1 construct: a cell lysate containing recombinantly expressed human full-length glucocorticoid receptor; purchased PanVera Co., Madison, Wis; P2816
T1 sequence (P04150 1-777): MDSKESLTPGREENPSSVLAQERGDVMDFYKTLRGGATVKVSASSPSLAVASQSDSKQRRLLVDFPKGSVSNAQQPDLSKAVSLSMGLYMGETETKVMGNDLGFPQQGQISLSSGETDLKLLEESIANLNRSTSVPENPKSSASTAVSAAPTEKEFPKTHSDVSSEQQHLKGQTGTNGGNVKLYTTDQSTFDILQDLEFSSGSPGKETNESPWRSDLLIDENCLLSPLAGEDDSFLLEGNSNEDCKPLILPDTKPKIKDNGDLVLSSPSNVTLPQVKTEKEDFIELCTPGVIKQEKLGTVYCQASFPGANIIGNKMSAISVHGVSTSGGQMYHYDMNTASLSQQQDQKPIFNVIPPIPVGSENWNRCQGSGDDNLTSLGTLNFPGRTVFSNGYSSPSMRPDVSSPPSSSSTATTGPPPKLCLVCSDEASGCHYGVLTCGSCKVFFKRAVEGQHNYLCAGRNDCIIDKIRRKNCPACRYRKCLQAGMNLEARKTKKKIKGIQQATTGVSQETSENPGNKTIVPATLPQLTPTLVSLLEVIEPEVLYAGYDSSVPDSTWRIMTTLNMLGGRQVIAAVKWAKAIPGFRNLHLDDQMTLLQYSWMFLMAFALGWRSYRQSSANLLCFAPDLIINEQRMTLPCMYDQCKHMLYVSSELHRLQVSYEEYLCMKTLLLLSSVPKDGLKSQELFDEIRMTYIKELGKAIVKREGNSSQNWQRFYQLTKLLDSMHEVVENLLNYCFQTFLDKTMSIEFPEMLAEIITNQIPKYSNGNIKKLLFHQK
As to the kind of experiment: Glucocorticoid Receptor Binding Assay (II), fluorescence polarization competitor kit (Fluormone GS1). As to conditions: cell lysate with recombinant human full-length GR, 1 nM Fluormone GS1, FP. The protocol: In order to measure the binding of compounds on the glucocorticoid receptor a commercially available kit was used (Glucocorticoid receptor competitor assay kit, PanVera Co., Madison, Wis., P2816). Briefly, a cell lysate containing recombinantly expressed human full-length glucocorticoid receptor was mixed with a fluorescently labeled glucocorticoid (1 nM Fluormone GS1) in the presence or absence of test compound. After one hour at room temperature, the fluorescence polarization (FP) of the samples were measured.

Test [2] concerns AP-1 induced transcriptional activity. The experiment in a line: Cellular Transrepressional Assay (AP-1 luciferase reporter in A549 cells, PMA-activated). In kind it is cell-based. The conditions noted are these: A549 cells with 7x AP-1 luciferase reporter, 10 ng/ml PMA, read-out: AP-1 (EC50, nM) (Cellular Transrepression Assay). The procedure, abridged:
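Stable A549 AP-1 (7× sites) luciferase reporter line stimulated with 10 ng/ml PMA plus test molecules (0.1 nM to 40 μM) for 7 h. Luminescence read after 10 min with luciferase reagent; EC50 from % decrease of PMA-induced signal.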

Test [3] addresses T2, human glucocorticoid receptor (Homo sapiens, UniProt P04150).
T2 construct: purified human recombinant full-length glucocorticoid receptor (2 nM); purchased Invitrogen Part #2893
T2 sequence (P04150 1-777): T1 sequence (P04150 1-777)
The experiment in a line: Glucocorticoid Receptor Binding Assay (I), fluorescence polarization competitor kit (Fluormone GS Red). The conditions noted are these: purified human recombinant full-length GR 2 nM, 1 nM Fluormone GS Red, FP; read-out: GR (Ki, nM) (GR Binding Assay (I)). How it is done: Briefly, purified human recombinant full-length glucocorticoid receptor (2 nM) was mixed with fluorescently labeled glucocorticoid (1 nM Fluormone GS Red) in the presence or absence of test compound. After two hour incubation at room temperature in the dark, the fluorescence polarization (FP) of the samples was measured. […] Test compounds were analyzed in the concentration range from 8.5E-05 μM to 5 μM.

Read-outs that look alike come from different tables or passages of the source. Bounds are passed on as bounds.

Turning to `CC(C)(C(=O)Nc1nncs1)C1(c2ccc3c(cnn3-c3ccc(F)cc3)c2)CCCCC1` [Example 101, 2-(1-(1-(4-Fluorophenyl)-1H-indazol-5-yl)cyclohexyl)-2-methyl-N-(1,3,4-thiadiazol-2-yl)propanamide], the Ki (usually a measure of affinity in units of concentration, obtained from inhibition or displacement) in test [1] was 1 nM. Besides, in test [2] (Homo sapiens, A549, 7 h), the half-maximal effective concentration (EC50) (commonly the midpoint of the concentration-response curve) was found to be 36 nM. On to `CC(C)(C(=O)NC1CCCC1O)C(Cc1ccccc1)c1ccc2c(cnn2-c2ccc(F)cc2)c1` (single isomer, unassigned) [Example 124-isomerB], for which, in test [1], the Ki was 2.3 nM. In addition, in test [2] (7 hours), the EC50 is more than 10000 nM. Take `Cc1cc2c(cnn2-c2ccc(F)cc2)cc1CC(C)C(=O)Nc1nncs1` (centres unmarked) [Example 106, 3-(1-(4-Fluorophenyl)-6-methyl-1H-indazol-5-yl)-2-methyl-N-(1,3,4-thiadiazol-2-yl)propanamide]: in test [1], the Ki was determined as 1 nM. Also, the EC50 in test [2] (Homo sapiens, A549, 7 h) turned out to be 160 nM. Taken in the same sequence, the figures for `CC(C)(C(=O)Nc1nncs1)C(c1ccc(F)cc1)c1ccc2c(cnn2-c2ccc(F)cc2)c1` (centres unmarked) [Example 53, 3-(4-fluorophenyl)-3-(1-(4-fluorophenyl)-1H-indazol-5-yl)-2,2-dimethyl-N-(1,3,4-thiadiazol-2-yl)propanamide] were 1.9 nM and 13 nM. The like results for `CC(C)(C(=O)Nc1nncs1)C(OCc1ccccc1)c1ccc2c(cnn2-c2ccc(F)cc2)c1` (centres unmarked) [Example 140, 3-(Benzyloxy)-3-(1-(4-fluorophenyl)-1H-indazol-5-yl)-2,2-dimethyl-N-(1,3,4-thiadiazol-2-yl)propanamide] were, in that order, 1.6 nM and 4 nM. Consider `O=C(Nc1nncs1)C(c1ccccc1)C(c1ccccc1)c1ccc2c(cnn2-c2ccc(F)cc2)c1` (single isomer, unassigned) [Example 145-isomerA, 3-(1-(4-fluorophenyl)-1H-indazol-5-yl)-2,3-diphenyl-N-(1,3,4-thiadiazol-2-yl)propanamide], for which, in test [1], the Ki was determined as 18 nM. Moreover, in test [2] (7 hours), the EC50 worked out at 5000 nM. Turning to `Cc1ccc(CC(c2ccc3c(cnn3-c3ccc(F)cc3)c2)C(C)(C)C(=O)Nc2nccs2)cc1` (centres unmarked) [Example 126, 3-(1-(4-fluorophenyl)-1H-indazol-5-yl)-2,2-dimethyl-N-(thiazol-2-yl)-4-p-tolylbutanamide], the Ki in test [1] was 6.8 nM. The EC50 in test [2] (Homo sapiens, A549, 7 h) is more than 10000 nM. In the case of `CCCC(c1ccc2c(cnn2-c2ccc(F)cc2)c1)C(C)(C)C(=O)Nc1nncs1` (centres unmarked) [Example 46, 3-(1-(4-fluorophenyl)-1H-indazol-5-yl)-2,2-dimethyl-N-(1,3,4-thiadazol-2-yl)hexanamide], the Ki in test [1] is 1.7 nM. In addition, the EC50 in test [2] (Homo sapiens, A549, 7 h) stood at 18 nM. As to `Cc1cccc(C(c2ccc3c(cnn3-c3ccc(F)cc3)c2)C(C)(C)C(=O)Nc2nccs2)c1` (centres unmarked) [Example 41, 3-(1-(4-fluorophenyl)-1H-indazol-5-yl)-2,2-dimethyl-N-(thiazol-2-yl)-3-m-tolylpropanamide], in test [1], the Ki stood at 2.3 nM. Moreover, in test [2] (Homo sapiens, A549, 7 h), the EC50 turned out to be 2.6 nM. As for `Cc1ccc(CC(c2ccc3c(cnn3-c3ccc(F)cc3)c2)C(C)(C)C(=O)Nc2nncs2)cc1` (centres unmarked) [Example 127, 3-(1-(4-fluorophenyl)-1H-indazol-5-yl)-2,2-dimethyl-N-(1,3,4-thiadiazol-2-yl)-4-p-tolylbutanamide], the Ki in test [1] was 3.8 nM. In addition, in test [2] (Homo sapiens, A549, 7 h), the EC50 was more than 10000 nM. As to `CC(C)(C(=O)NC1CCOCC1)C(Cc1ccccc1)c1ccc2c(cnn2-c2ccc(F)cc2)c1` (centres unmarked) [Example 132, 3-(1-(4-fluorophenyl)-1H-indazol-5-yl)-2,2-dimethyl-4-phenyl-N-(tetrahydro-2H-pyran-4-yl)butanamide], the Ki in test [1] was 7.8 nM. Moreover, the EC50 in test [2] (Homo sapiens, A549, 7 h) was more than 10000 nM. The like results for `O=C(Nc1nncs1)C(c1ccccc1)C(c1ccccc1)c1ccc2[nH]ncc2c1` (single isomer, unassigned) [152-diast A, 3-(1H-Indazol-5-yl)-2,3-diphenyl-N-(1,3,4-thiadiazol-2-yl)propanamide] were, in that order, 9.8 nM and 2500 nM. The like results for `Cc1cccc(C(c2ccc3c(cnn3-c3ccc(F)cc3)c2)C(C)(C)C(=O)Nc2nncs2)c1` (centres unmarked) [Example 50, 3-(1-(4-fluorophenyl)-1H-indazol-5-yl)-2,2-dimethyl-N-(1,3,4-thiadiazol-2-yl)-3-m-tolylpropanamide] were, in that order, 0.92 nM and 9.7 nM.

On to `CC(C)(C(=O)Nc1nncs1)[C@@H](c1ccccc1)c1ccc2c(cnn2-c2ccc(F)cc2C(=O)O)c1` [Example 157, 2-(5-((S)-3-(1,3,4-Thiadiazol-2-ylamino)-2,2-dimethyl-3-oxo-1-phenylpropyl)-1H-indazol-1-yl)-5-fluorobenzoic acid], for which the Ki in test [1] is 634 nM. `CC(C)(C(=O)Nc1nncs1)C(c1ccccc1)c1ccc2c(cnn2-c2ccc(Br)cc2)c1` (centres unmarked) [Example 91, 3-(1-(4-bromophenyl)-1H-indazol-5-yl)-2,2-dimethyl-3-phenyl-N-(1,3,4-thiadiazol-2-yl)propanamide]: the inhibition constant Ki in test [3] came out at 29 nM. Besides, the EC50 in test [2] (Homo sapiens, A549, 7 h) was found to be 956 nM. Taken in the same sequence, the figures for `CC(C)(Cc1ccc2c(cnn2-c2ccc(F)cc2)c1)C(=O)Nc1nccs1` [Example 31, 3-(1-(4-Fluorophenyl)-1H-indazol-5-yl)-2,2-dimethyl-N-(thiazol-2-yl)propanamide] were 98 nM and more than 10000 nM.

For `CC(C)Cn1ncc2cc(C(c3ccccc3)C(C)(C)C(=O)Nc3nncs3)ccc21` (centres unmarked) [Example 70, 3-(1-isobutyl-1H-indazol-5-yl)-2,2-dimethyl-3-phenyl-N-(1,3,4-thiadiazol-2-yl)propanamide], in test [3], the Ki was determined as 19 nM. Further, in test [2] (Homo sapiens, A549, 7 h), the EC50 amounted to 1020 nM. The like results for `Cc1nc(NC(=O)C(C)(C)C(c2ccccc2)c2ccc3c(cnn3-c3ccc(F)cc3)c2)sc1C` (centres unmarked) [Example 24, N-(4,5-dimethylthiazol-2-yl)-3-(1-(4-fluorophenyl)-1H-indazol-5-yl)-2,2-dimethyl-3-phenylpropanamide] were, in that order, 28 nM and more than 10000 nM. The like results for `CC(C)(C(=O)Nc1nncs1)C(c1ccccc1)c1ccc2c(cnn2-c2ccc(Cl)cc2)c1` (centres unmarked) [Example 93, 3-(1-(4-chlorophenyl)-1H-indazol-5-yl)-2,2-dimethyl-3-phenyl-N-(1,3,4-thiadiazol-2-yl)propanamide] were, in that order, 18 nM and 32 nM.

For `CC(C)(C(=O)Nc1nccs1)C(c1ccccc1)c1ccc2c(cnn2-c2ccccn2)c1` (centres unmarked) [Example 79, 2,2-dimethyl-3-phenyl-3-(1-(pyridin-2-yl)-1H-indazol-5-yl)-N-(thiazol-2-yl)propanamide], the Ki in test [3] amounted to 10 nM. In addition, in test [2] (Homo sapiens, A549, 7 h), the EC50 stood at 2480 nM. On to `CC(C)(C(=O)NC1CCCC1)C(c1ccccc1)c1ccc2c(cnn2-c2ccc(F)cc2)c1` (centres unmarked) [Example 3, N-cyclopentyl-3-(1-(4-fluorophenyl)-1H-indazol-5-yl)-2,2-dimethyl-3-phenylpropanamide], for which the Ki in test [3] stood at 6.9 nM. The EC50 in test [2] (Homo sapiens, A549, 7 h) stood at 199 nM. Taken in the same sequence, the figures for `CCOC(=O)c1nnc(NC(=O)C(C)(C)C(c2ccccc2)c2ccc3c(cnn3-c3ccc(F)cc3)c2)s1` (centres unmarked) [Example 10, ethyl 5-(3-(1-(4-fluorophenyl)-1H-indazol-5-yl)-2,2-dimethyl-3-phenylprop-anamido)-1,3,4-thiadiazole-2-carboxylate] were 227 nM and 3520 nM. With `CC(C)(C(=O)Nc1nncs1)C(c1ccccc1)c1ccc2c(cnn2-c2ccccc2)c1` (centres unmarked) [Example 87, 2,2-dimethyl-3-phenyl-3-(1-phenyl-1H-indazol-5-yl)-N-(1,3,4-thiadiazol-2-yl)propanamide], the Ki in test [3] came out at 5 nM. Besides, the EC50 in test [2] (Homo sapiens, A549, 7 h) was 20 nM. Taken in the same sequence, the figures for `O=C(Nc1nccs1)C1CC1c1ccc2c(cnn2-c2ccc(F)cc2)c1` (centres unmarked) [Example 103, 2-(1-(4-Fluorophenyl)-1H-indazol-5-yl)-N-(thiazol-2-yl)cyclopropanecarboxamide] were 248 nM and more than 10000 nM.
